In patent publication US10011615B2, “Heterobicyclo-substituted [1,2,4]triazolo[1,5-c]quinazolin-5-amine compounds with A2A anatagonist properties” (Merck Sharp & Dohme Corp., priority 2012, dated 2018) one finds EC50 data, which are given here for 39 molecules.

Each structure is given as a SMILES string. pEC50: −log10 of the molar value.

T1 sequence (P29274 whole entry): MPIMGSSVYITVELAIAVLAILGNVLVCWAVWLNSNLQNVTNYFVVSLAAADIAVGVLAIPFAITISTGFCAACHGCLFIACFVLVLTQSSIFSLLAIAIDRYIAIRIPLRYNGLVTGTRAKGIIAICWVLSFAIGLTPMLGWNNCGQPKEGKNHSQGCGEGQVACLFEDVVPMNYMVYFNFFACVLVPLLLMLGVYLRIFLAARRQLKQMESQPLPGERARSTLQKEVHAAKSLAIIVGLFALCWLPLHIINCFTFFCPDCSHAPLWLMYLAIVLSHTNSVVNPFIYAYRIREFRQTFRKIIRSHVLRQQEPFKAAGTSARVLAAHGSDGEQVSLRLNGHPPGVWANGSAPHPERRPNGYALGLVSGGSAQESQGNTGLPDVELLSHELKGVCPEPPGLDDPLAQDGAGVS

The experiment addresses T1, human A2a receptor (Homo sapiens, UniProt P29274).
T1 construct: purchased Perkin-Elmer RBHA2AM400UA; host or cells: HEK293 cell membranes
In words: A2a receptor competition binding assay using Scintillation Proximity technology. Particulars: membranes from HEK293 cells expressing human A2a receptor; 0.5 nM tritiated radioligand; SPA beads; 1 h room temperature. The gist of the method: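 Membranes of HEK293 cells expressing human A2a, pretreated with adenosine deaminase, incubated 1 h at room temperature with 0.5 nM tritiated pyrazolotriazolopyrimidine antagonist (final) and compound (3000 to 0.15 nM) on WGA SPA beads in Ca/Mg-free PBS with 10 mM MgCl2. Ki from EC50 via Cheng-Prusoff.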
Background: SPA uses beads or plates that emit light when radiolabelled molecules are held near them.
Broadly, the pEC50 is −log10 of the EC50, conventionally taken in molar units. Take `COc1cccc2c1nc(N)n1nc(CCN3CCc4[nH]ncc4C3)nc21` [Ex-36, 2-(2-(6,7-dihydro-1H-pyrazolo[4,3-c]pyridin-5(4H)-yl)ethyl)-7-methoxy-[1,2,4]triazolo[1,5-c]quinazolin-5-amine]: the pEC50 is 8.17. Next, `COc1cccc2c1nc(N)n1nc(CN3CCCc4cnccc43)nc21` [Ex-134, 2-((3,4-dihydro-1,6-naphthyridin-1(2H)-yl)methyl)-7-methoxy-[1,2,4]triazolo[1,5-c]quinazolin-5-amine]: 8.17. Next, `COc1cccc2c1nc(N)n1nc(CCN3CCc4[nH]nc(C)c4C3)nc21` [Ex-37, 7-methoxy-2-(2-(3-methyl-6,7-dihydro-1H-pyrazolo[4,3-c]pyridin-5(4H)-yl)ethyl)-[1,2,4]triazolo[1,5-c]quinazolin-5-amine]: 8.19; `COc1cccc2c1nc(N)n1nc(CN3Cc4nnc(C(F)(F)F)n4C(C)(C)C3)nc21` [Ex-145, 2-((5,5-dimethyl-3-(trifluoromethyl)-5,6-dihydro-[1,2,4]triazolo[4,3-a]pyrazin-7(8H)-yl)methyl)-7-methoxy-[1,2,4]triazolo[1,5-c]quinazolin-5-amine]: 7.32; `Nc1nc2c(OCCF)cccc2c2nc(CN3CCc4cccnc4C3)nn12` [Ex-202]: 6.83. Next, `COc1cccc2c1nc(N)n1nc(CN3CCCc4ccccc43)nc21` [Ex-119, 2-((3,4-dihydroquinolin-1(2H)-yl)methyl)-7-methoxy-[1,2,4]triazolo[1,5-c]quinazolin-5-amine]: 8.68; `COc1cccc2c1nc(N)n1nc(CCN3Cc4nc(C)oc4C3)nc21` [Ex-244, 7-methoxy-2-(2-(2-methyl-4H-pyrrolo[3,4-d]oxazol-5(6H)-yl)ethyl)-[1,2,4]triazolo[1,5-c]quinazolin-5-amine]: 9.52; `COc1cccc2c1nc(N)n1nc(CN3CCc4ccccc4CC3)nc21` [Ex-131, 2-((4,5-dihydro-1H-benzo[d]azepin-3(2H)-yl)methyl)-7-methoxy-[1,2,4]triazolo[1,5-c]quinazolin-5-amine]: 7.80. For `COc1cccc2c1nc(N)n1nc(CCN3CCCc4[nH]nc(C5CC5)c43)nc21` [Ex-52, 2-(2-(3-cyc1opropyl-6,7-dihydro-1H-pyrazolo[4,3-b]pyridin-4(5H)-yl)ethyl)-7-methoxy[1,2,4]triazolo[1,5-c]quinazolin-5-amine], the pEC50 is 8.06. The same measure for `COc1cccc2c1nc(N)n1nc(CN3Cc4ccc(-c5cncnc5)cc4C3)nc21` [Ex-175]: 8.34; for `CCOc1cccc2c1nc(N)n1nc(CN3Cc4cccnc4C3)nc21` [Ex-203, 2-((5H-pyrrolo[3,4-b]pyridin-6(7H)-yl)methyl)-7-ethoxy-[1,2,4]triazolo[1,5-c]quinazolin-5-amine]: 7.05; for `COc1cccc2c1nc(N)n1nc(CN3CCCCc4ccc(-c5ccccn5)nc43)nc21` [Ex-162, 7-methoxy-2-((2-(pyridin-2-yl)-7,8-dihydro-5H-pyrido[2,3-b]azepin-9(6H)-yl)methyl)-[1,2,4]triazolo[1,5-c]quinazolin-5-amine]: 8.57. Next, `COc1cccc2c1nc(N)n1nc(CCN3CCn4c(Br)nnc4C3)nc21` [Ex-3, 2-(2-(3-bromo-5,6-dihydro-[1,2,4]triazolo[4,3-a]pyrazin-7(8H)-yl)ethyl)-7-methoxy-[1,2,4]triazolo[1,5-c]quinazolin-5-amine]: 8.47. Next, `Nc1nc2c(Br)cccc2c2nc(CN3CCc4cccnc4C3)nn12` [Ex-194]: 8.06; `COc1cccc2c1nc(N)n1nc(CCN3CCc4nc(C5CC5)oc4C3)nc21` [Ex-31, 2-(2-(2-cyclopropyl-6,7-dihydrooxazolo[5,4-c]pyridin-5(4H)-yl)ethyl)-7-methoxy[1,2,4]triazolo[1,5-c]quinazolin-5-amine]: 8.89; `COc1cccc2c1nc(N)n1nc(CCN3CCn4nc(C5CC5)nc4C3)nc21` [Ex-12, 2-(2-(2-cyclopropyl-5,6-dihydro-[1,2,4]triazolo[1,5-a]pyrazin-7(8H)-yl)ethyl)-7-methoxy-[1,2,4]triazolo[1,5-c]quinazolin-5-amine]: 8.70.

In the case of `COc1cccc2c1nc(N)n1nc(CN3CCc4cccnc4C3)nc21` [Ex-123, 2-((5,6-dihydro-1,7-naphthyridin-7(8H)-yl)methyl)-7-methoxy-[1,2,4]triazolo[1,5-c]quinazolin-5-amine], the pEC50 is 8.25.

In turn, `COc1cccc2c1nc(N)n1nc(C[C@@H](C)N3CCc4oc(C)nc4C3)nc21` [Ex-214, (R)-7-methoxy-2-(2-(2-methyl-6,7-dihydrooxazolo[4,5-c]pyridin-5(4H)-yl)propyl)-[1,2,4]triazolo[1,5-c]quinazolin-5-amine] gave a pEC50 of 7.54. Next, `Nc1nc2c(F)cccc2c2nc(CCN3Cc4cnc(C(F)(F)F)nc4C3)nn12` [Ex-88]: 7.37; `Cc1cccc2c1nc(N)n1nc(CN3Cc4cccnc4C3)nc21` [Ex-200, 2-((5H-pyrrolo[3,4-b]pyridine-6(7H)-yl)methyl)-7-methyl-[1,2,4]triazolo[1,5-c]quinazolin-5-amine]: 7.45; `COc1cccc2c1nc(N)n1nc(CN3CCn4cnnc4C3)nc21` [Ex-141, 2-((5-dihydro-[1,2,4]triazolo[4,3-a]pyrazin-7(8H)-yl)methyl)-7-methoxy-[1,2,4]triazolo[1,5-c]quinazolin-5-amine]: 6.83. Next, `COc1cccc2c1nc(N)n1nc(C[C@@H](C(F)F)N3Cc4cccnc4C3)nc21` [Ex-103]: 8.08; `COc1cccc2c1nc(N)n1nc(CN3CCn4c(nnc4SC)C3)nc21` [Ex-138]: 6.84. The same measure for `COc1cccc2c1nc(N)n1nc(CN3CCn4c(nnc4OC)C3)nc21` [Ex-144, 7-methoxy-2-((3-methoxy-5,6-dihydro[1,2,4]triazolo[4,3-a]pyrazin-7(8H)-yl)methyl)[1,2,4]triazolo[1,5-c]quinazolin-5-amine]: 6.83; for `COc1cccc2c1nc(N)n1nc(CCN3CCn4c(nnc4C(F)(F)F)C3)nc21` [Ex-17, 7-methoxy-2-(2-(3-(trifluoromethyl)-5,6-dihydro[1,2,4]triazolo[4,3-a]pyrazin-7(8H)-yl)ethyl)-[1,2,4]triazolo[1,5-c]quinazolin-5-amine]: 8.02. For the molecule `COc1cccc2c1nc(N)n1nc(CN3CCCCc4ccc(Cl)nc43)nc21` [Ex-160, 2-((2-chloro-7,8-dihydro-5H-pyrido[2,3-b]azepin-9(6H)-yl)methyl)-7-methoxy-[1,2,4]triazolo[1,5-c]quinazolin-5-amine], the pEC50 was 8.82.

The molecule `Nc1nc2c(F)cccc2c2nc(CCN3Cc4cccc(F)c4C3)nn12` [Ex-89] had a pEC50 of 7.32. The same measure for `CCOC(=O)c1nnc2n1CCN(Cc1nc3c4cccc(OC)c4nc(N)n3n1)C2` [Ex-139, ethyl 7-((5-amino-7-methoxy-[1,2,4]triazolo[1,5-c]quinazolin-2-yl)methyl)-5,6,7,8-tetrahydro-[1,2,4]triazolo[4,3-a]pyrazine-3-carboxylate]: 6.96. `COc1cccc2c1nc(N)n1nc(CCN3CCc4ncsc4C3)nc21` [Ex-56, 2-(2-(6,7-dihydrothiazolo[5,4-c]pyridin-5(4H)-yl)ethyl)-7-methoxy-[1,2,4]triazolo[1,5-c]quinazolin-5-amine]: the pEC50 is 8.47. Next, `COc1cccc2c1nc(N)n1nc(C[C@@H](C)N3CCc4nc(C)sc4C3)nc21` [Ex-216, (R)-7-methoxy-2-(2-(2-methyl-6,7-dihydrothiazolo[5,4-c]pyridin-5(4H)-yl)propyl)-(1,2,4]triazolo[1,5-c]quinazolin-5-amine]: 8.52; `COc1cccc2c1nc(N)n1nc(CCN3CCc4cncnc4C3)nc21` [Ex-53, 2-(2-(5,6-dihydropyrido[3,4-d]pyrimidin-7(8H)-yl)ethyl)-7-methoxy-[1,2,4]triazolo[1,5-c]quinazolin-5-amine]: 8.62; `COc1cccc2c1nc(N)n1nc(CN3CCn4c(nnc4C(F)(F)F)C3)nc21` [Ex-153, 7-methoxy-2-((3-(trifluoromethyl)-5,6-dihydro[1,2,4]triazolo[4,3-a]pyrazin-7(8H)-yl)methyl)-[1,2,4]triazolo[1,5-c]quinazolin-5-amine]: 6.55. The same measure for `CCN1CCN(c2ccnc3c2CCN(CCc2nc4c5cccc(OC)c5nc(N)n4n2)C3)CC1` [Ex-73, 2-(2-(4-(4-ethylpiperazin-1-yl)-5,6-dihydro-1,7-naphthyridin-7(8H)-yl)ethyl)-7-methoxy-[1,2,4]triazolo[1,5-c]quinazolin-5-amine]: 8.52; for `Nc1nc2c(F)cccc2c2nc(CCN3Cc4cccnc4C3)nn12` [Ex-83, 2-[2-(5,7-dihydro-6H-pyrrolo[3,4-b]pyridin-6-yl)ethyl]-7-fluoro[1,2,4]triazolo[1,5-c]quinazolin-5-amine]: 7.80.

The molecule `CCCC(Cc1nc2c3cccc(OC)c3nc(N)n2n1)N1Cc2cccnc2C1` (stereo not drawn) [Ex-115] had a pEC50 of 7.67.

Consider `COc1cccc2c1nc(N)n1nc(CN3CCc4ccncc4C3)nc21` [Ex-125, 2-((3,4-dihydro-2,7-naphthyridin-2(1H)-yl)methyl)-7-methoxy-[1,2,4]tri azolo[1,5-c]quinazolin-5-amine], for which the pEC50 was 7.56.

The molecule `COCc1cccc2c1nc(N)n1nc(CN3Cc4cccnc4C3)nc21` [Ex-198, 2-((5H-Pyrrolo[3,4-b]pyridin-6(7H)-yl)methyl)-7-(methoxymethyl)-[1,2,4]triazolo[1,5-c]quinazolin-5-amine] had a negative logarithm of the EC50 (pEC50) of 6.68. Next, `Nc1nc2c(F)cccc2c2nc(CCN3Cc4ccc(F)cc4C3)nn12` [Ex-85]: 7.65; `COc1cccc2c1nc(N)n1nc(CCN3CCCCc4cccnc43)nc21` [Ex-20, 2-(2-(7,8-dihydro-5H-pyrido[2,3-b]azepin-9(6H)-yl)ethyl)-7-methoxy-[1,2,4]triazolo[1,5-c]quinazolin-5-amine]: 7.89.
